Drawing on ChEMBL document CHEMBL5465560, “Selectivity Literature for EUbOPEN Chemogenomic Library” (2024), this text covers % of inhibition, % of control and % binding for nine compounds.

The target of experiment [1] is T1, Activin receptor type-1 (Homo sapiens) (UniProt Q04771).
T1 sequence (whole entry): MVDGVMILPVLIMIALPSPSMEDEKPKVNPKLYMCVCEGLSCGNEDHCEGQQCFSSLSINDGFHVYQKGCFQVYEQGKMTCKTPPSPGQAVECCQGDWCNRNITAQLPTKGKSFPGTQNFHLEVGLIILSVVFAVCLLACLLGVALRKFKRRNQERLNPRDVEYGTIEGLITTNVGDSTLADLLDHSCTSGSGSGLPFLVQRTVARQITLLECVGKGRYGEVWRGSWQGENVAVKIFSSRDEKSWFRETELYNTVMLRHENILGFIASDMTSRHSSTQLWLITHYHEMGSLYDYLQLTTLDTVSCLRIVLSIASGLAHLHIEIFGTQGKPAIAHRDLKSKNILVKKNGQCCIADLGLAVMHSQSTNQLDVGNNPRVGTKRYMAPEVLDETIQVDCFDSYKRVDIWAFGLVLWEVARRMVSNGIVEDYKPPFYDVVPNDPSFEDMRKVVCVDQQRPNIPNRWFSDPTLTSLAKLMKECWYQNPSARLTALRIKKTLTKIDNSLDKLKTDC
The experiment is described as follows: (§1) Selectivity interaction (LanthaScreen Eu Kinase Binding Assay) EUB0001632a ACVR1. The following applies: at 10 µM.

The test system of experiment [2] is Activin receptor type-1 (Homo sapiens), Q04771 [R206H]. The description is as §1. The following applies: at 10 µM.
Chain of Activin receptor type-1 (Homo sapiens), Q04771 [R206H] (Q04771 whole entry R206H): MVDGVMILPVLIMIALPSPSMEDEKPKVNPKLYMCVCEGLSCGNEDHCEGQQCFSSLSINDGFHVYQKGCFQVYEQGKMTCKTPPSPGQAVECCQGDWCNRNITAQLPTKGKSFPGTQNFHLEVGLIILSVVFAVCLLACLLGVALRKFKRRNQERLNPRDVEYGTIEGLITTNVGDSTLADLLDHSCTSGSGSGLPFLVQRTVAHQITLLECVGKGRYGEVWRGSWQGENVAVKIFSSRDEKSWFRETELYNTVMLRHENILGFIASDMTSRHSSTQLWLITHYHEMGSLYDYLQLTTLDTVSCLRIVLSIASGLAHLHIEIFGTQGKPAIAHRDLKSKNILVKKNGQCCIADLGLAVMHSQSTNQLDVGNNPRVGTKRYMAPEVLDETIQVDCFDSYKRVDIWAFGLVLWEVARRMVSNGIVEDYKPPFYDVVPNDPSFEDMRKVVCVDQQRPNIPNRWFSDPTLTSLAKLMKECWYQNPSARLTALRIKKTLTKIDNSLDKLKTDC
The subject of experiment [3] is Mast/stem cell growth factor receptor Kit (Homo sapiens), P10721 [T670I]. The experiment is described as follows: (§2) Selectivity interaction (Kinase panel (Z-LYTE Assay)) EUB0001632a KIT. The following applies: at 10 µM.
The test system of experiment [4] is Mast/stem cell growth factor receptor Kit (Homo sapiens), P10721 [V559D,V654A]. The description is as §2. The following applies: at 10 µM.
Experiment [5] concerns Mast/stem cell growth factor receptor Kit (Homo sapiens), P10721 [V559D]. The description is as §2. The following applies: at 10 µM.
Chain of Mast/stem cell growth factor receptor Kit (Homo sapiens), P10721 [V559D] (P10721 whole entry V559D): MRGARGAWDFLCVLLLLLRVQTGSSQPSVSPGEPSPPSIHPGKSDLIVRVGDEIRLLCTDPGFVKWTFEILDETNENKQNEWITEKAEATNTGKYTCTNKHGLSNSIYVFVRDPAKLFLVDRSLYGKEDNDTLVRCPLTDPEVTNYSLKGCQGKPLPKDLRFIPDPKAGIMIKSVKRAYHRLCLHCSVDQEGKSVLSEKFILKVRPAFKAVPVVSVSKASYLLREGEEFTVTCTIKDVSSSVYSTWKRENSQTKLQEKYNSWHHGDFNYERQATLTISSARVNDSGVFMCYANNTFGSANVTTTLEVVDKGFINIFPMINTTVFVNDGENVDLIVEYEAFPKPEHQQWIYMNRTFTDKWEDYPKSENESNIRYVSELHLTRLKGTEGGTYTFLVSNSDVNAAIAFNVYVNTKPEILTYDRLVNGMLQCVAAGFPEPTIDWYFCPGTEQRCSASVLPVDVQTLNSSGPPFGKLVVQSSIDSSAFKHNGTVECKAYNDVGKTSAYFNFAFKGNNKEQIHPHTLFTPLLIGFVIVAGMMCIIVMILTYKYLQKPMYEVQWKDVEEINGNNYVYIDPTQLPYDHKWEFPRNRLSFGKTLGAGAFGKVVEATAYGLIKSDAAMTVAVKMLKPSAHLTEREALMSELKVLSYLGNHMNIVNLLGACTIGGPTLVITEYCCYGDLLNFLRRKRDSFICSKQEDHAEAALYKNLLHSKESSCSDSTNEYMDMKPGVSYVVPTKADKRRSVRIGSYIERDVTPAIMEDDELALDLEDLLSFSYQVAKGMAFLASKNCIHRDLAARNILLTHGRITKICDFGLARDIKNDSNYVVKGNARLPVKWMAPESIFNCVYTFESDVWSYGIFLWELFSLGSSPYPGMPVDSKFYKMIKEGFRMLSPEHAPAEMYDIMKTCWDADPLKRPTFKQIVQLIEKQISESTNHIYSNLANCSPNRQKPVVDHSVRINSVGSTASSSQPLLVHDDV
Experiment [6] concerns Mast/stem cell growth factor receptor Kit (Homo sapiens), P10721 [V560G]. Described as §2. The following applies: at 10 µM.
Chain of Mast/stem cell growth factor receptor Kit (Homo sapiens), P10721 [V560G] (P10721 whole entry V560G): as the sequence (P10721 whole entry V559D) above, with D559V, V560G counted along it
In experiment [7] the target is Mast/stem cell growth factor receptor Kit (Homo sapiens, UniProt P10721). The experiment is described as §2. The following applies: at 10 µM.
Chain of Mast/stem cell growth factor receptor Kit (P10721 whole entry): as the sequence (P10721 whole entry V559D) above, with D559V counted along it
The target in experiment [8] is Calcium/calmodulin-dependent protein kinase type II subunit delta (Homo sapiens) (UniProt Q13557). The experiment is described as follows: Selectivity interaction (KinomeScan (DiscoverX)) EUB0000595a CAMK2D. The following applies: at 10 µM.
For experiment [9], the target named is Serine/threonine-protein kinase ATR (Homo sapiens) (UniProt Q13535). The experiment is described as follows: Selectivity interaction (ActivX KiNativ screen (ex vivo kinase selectivity in human PBMCs)) EUB0001619a ATR. The experiment is classed as cell-based. The following applies: PBMC, at 1 µM.
Experiment [10] addresses T2, Serine/threonine-protein kinase Sgk2 (Homo sapiens) (UniProt Q9HBY8).
T2 sequence (whole entry): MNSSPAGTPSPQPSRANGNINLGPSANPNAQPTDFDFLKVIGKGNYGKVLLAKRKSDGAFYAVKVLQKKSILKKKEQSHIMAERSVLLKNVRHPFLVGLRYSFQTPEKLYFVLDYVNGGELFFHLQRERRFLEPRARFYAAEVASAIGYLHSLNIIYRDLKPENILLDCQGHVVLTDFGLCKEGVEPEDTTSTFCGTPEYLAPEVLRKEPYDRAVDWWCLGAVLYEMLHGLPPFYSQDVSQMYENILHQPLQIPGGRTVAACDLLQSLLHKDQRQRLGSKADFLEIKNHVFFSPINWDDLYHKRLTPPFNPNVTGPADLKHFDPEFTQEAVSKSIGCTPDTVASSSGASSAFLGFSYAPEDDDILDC
Nature of the experiment: Selectivity interaction (KinomeScan (DiscoverX)) EUB0000695a SGK2. The following applies: at 100 nM.

Experiment [11] concerns the target Tyrosine-protein kinase BTK (Homo sapiens, UniProt Q06187). Nature of the experiment: Selectivity interaction (ActivX KiNativ screen (kinase selectivity in THP-1 cell lysates)) EUB0000639a BTK. The following applies: lysate, at 0.01 µM. The experiment is classed as subcellular.
In experiment [12] the target is T3, Cyclin-dependent kinase-like 2 (Homo sapiens) (UniProt Q92772).
T3 sequence (whole entry): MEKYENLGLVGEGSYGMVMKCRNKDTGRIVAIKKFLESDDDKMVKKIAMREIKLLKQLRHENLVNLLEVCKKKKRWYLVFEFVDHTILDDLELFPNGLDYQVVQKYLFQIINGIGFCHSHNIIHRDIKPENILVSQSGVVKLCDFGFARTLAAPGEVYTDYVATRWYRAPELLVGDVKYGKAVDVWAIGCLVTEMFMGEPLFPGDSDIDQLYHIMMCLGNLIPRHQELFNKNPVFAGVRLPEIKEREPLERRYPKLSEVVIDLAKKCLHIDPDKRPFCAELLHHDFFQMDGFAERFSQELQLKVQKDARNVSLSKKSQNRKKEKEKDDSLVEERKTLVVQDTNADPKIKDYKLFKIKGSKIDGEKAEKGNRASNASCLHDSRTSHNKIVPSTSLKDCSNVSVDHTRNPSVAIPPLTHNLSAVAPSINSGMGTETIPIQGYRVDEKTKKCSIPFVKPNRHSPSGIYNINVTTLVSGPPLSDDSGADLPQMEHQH
The experiment is described as follows: Selectivity interaction (Ambit KINOMEscan and KiNATiv profiling in Jurkat cells) EUB0000090b CDKL2. The following applies: at 1 µM. It is filed as cell-based.

In experiment [13] the target is BDNF/NT-3 growth factors receptor (Homo sapiens) (UniProt Q16620). Nature of the experiment: Selectivity interaction (Ambit KINOMEscan and KiNATiv profiling in Jurkat cells) EUB0000090b NTRK2. It is filed as cell-based. The following applies: at 1 µM.
Experiment [14] has as its target T4, cAMP-dependent protein kinase catalytic subunit PRKX (Homo sapiens) (UniProt P51817).
T4 sequence (whole entry): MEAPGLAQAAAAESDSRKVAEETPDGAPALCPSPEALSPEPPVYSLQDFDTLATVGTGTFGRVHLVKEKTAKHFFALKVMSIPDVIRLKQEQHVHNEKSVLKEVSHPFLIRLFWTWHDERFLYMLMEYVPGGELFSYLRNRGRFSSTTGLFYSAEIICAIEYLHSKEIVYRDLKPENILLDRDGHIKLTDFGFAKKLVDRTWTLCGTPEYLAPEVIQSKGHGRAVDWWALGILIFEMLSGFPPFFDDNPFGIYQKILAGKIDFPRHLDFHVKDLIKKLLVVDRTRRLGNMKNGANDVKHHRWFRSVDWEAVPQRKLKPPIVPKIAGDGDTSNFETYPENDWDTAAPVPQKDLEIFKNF
The experiment is described as follows: Selectivity interaction (KinomeScan (DiscoverX)) EUB0000618a PRKX. The following applies: at 10 µM.

Experiment [15] deals with Serine/threonine-protein kinase PLK2 (Homo sapiens, UniProt Q9NYY3). Nature of the experiment: Selectivity interaction (KinomeScan (DiscoverX)) EUB0001079a PLK2. The following applies: at 1 µM.
Experiment [16] concerns the target cAMP-dependent protein kinase catalytic subunit beta (Homo sapiens) (UniProt P22694). Nature of the experiment: Selectivity interaction (KinomeScan (DiscoverX)) EUB0001079a PRKACB. The following applies: at 1 µM.
The target of experiment [17] is Mitogen-activated protein kinase 11 (Homo sapiens) (UniProt Q15759). Nature of the experiment: Selectivity interaction (KinomeScan (DiscoverX)) EUB0000229b MAPK11. The following applies: at 10 µM.

Chain of Mast/stem cell growth factor receptor Kit (Homo sapiens), P10721 [T670I] (P10721 whole entry T670I): as the sequence (P10721 whole entry V559D) above, with D559V, T670I counted along it
Chain of Tyrosine-protein kinase BTK (Q06187 whole entry): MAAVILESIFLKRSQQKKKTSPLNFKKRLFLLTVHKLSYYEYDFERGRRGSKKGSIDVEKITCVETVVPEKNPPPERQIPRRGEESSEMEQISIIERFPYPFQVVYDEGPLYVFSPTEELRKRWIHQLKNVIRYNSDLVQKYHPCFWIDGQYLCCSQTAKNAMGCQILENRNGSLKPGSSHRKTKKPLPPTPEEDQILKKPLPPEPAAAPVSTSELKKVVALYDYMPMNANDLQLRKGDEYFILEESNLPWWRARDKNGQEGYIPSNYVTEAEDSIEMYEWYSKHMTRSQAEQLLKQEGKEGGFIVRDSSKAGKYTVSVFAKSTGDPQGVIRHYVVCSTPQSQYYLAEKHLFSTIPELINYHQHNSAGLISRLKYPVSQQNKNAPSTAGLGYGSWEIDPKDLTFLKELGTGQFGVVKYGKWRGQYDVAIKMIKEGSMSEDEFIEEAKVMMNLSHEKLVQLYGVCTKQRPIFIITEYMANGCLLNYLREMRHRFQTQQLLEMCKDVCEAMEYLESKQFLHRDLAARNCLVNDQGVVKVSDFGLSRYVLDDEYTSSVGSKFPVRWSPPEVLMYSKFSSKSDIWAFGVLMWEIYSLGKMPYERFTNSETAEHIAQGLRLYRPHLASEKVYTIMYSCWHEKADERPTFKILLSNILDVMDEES

Consider `Cn1cc(-n2cnc3c(NCc4nc5cc(Cl)c(Cl)cc5[nH]4)nc(N4CCOCC4)nc32)cn1`, for which the % of inhibition in experiment [1] was -2.09%; in experiment [2] it was -125%. The % of control in experiment [3] worked out at 0.683%; in [4], 0.874%; in experiment [5], 6.85%; in experiment [6] it was 1.94%; in [7], 7.07%.

As for `COCC(=O)NC/C=C/c1ccc2ncnc(Nc3ccc(Oc4ccc(C)nc4)c(C)c3)c2c1` [CP-724714], the % of control in [8] is 100%.

With `N#Cc1cccc(-c2c[nH]c3ncnc(N4CCOCC4)c23)c1`, the % of inhibition in [9] amounted to 25%.

In experiment [10], `Cc1cc(F)c(C(=O)Nc2cccc(-c3nncn3C(C)C)n2)cc1-n1cnc(C2CC2)c1` returned a % of control of 100%.

In the case of `CC[C@@H]1[C@H](F)C(=O)N[C@@H]1COc1nccc2cc(C(N)=O)c(OC)cc12` [ZIMLOVISERTIB], in [11], the % of inhibition is -4.4%.

Turning to `CN(C)C/C=C/C(=O)Nc1ccc(C(=O)N2CCCC(Nc3ncc(Cl)c(-c4c[nH]c5ccccc45)n3)C2)cc1` (configuration not stated), the % of control amounted to 75% in [12] and 76% in [13].

In [14], `O[C@H]1CC[C@H](Nc2ncc3nc(Nc4c(F)cc(F)cc4F)n([C@H]4CCOC4)c3n2)CC1` came in with a % of control of 100%.

On to `Nc1cnc(N2CCc3cc(S(=O)(=O)Nc4c(F)cc(Cl)cc4F)cc(N4CCCC4=O)c32)nc1` [TP-020n], for which the % of control in [15] and in experiment [16] was 100% each time.

Consider `COc1cc(N(C)c2ccnc3ccc(C(F)(F)F)cc23)cc(OC)c1OC`, for which the % binding in [17] worked out at 90%.
